US9891156B2, “Method for determining the permeation of a permeant through a membrane” (Paraytec Limited, priority 2014, dated 2018)

Experiment: Rapid in vitro release testing of ibuprofen gel by UV/VIS area imaging
Assay type: in vitro ADME
Conditions: calculated comparison value; extinction coefficient 1.5 dm^3 g^−1 cm^−1
Description: Measurements were made by switching the LED source of UV irradiation 51 and the LED source of VIS irradiation 52 and imaging at a frame rate of 2 Hz. […] Imaging is typically carried out alternately at a first wavelength where the API absorbs light (280 or 255 nm) and a second wavelength where there is no absorption (505 nm). […] The sample assembly 20 further comprises a fused silica elongate cuvette 22 which is cuboidal and open at the upper end with a width of 7 mm, a depth of 4 mm and a wall thickness of 1 mm. […] The fused silica elongate cuvette 22 is inserted vertically inside the elongate receptor cell 24 and is capped at a lower end with a membrane 21 which is glued in place. […] The sample assembly 20 further comprises an elongate substantially planar holder 30 for the API formulation 13 (the donor phase) which is slidably inserted in the fused silica elongate cuvette 22. The elongate substantially planar holder 30 projects beyond an upper end 22a of the fused silica elongate cuvette 22 to facilitate removal. […] The vertical bar (z direction) was used for measurement of the absorbance profiles spanning the donor phase, the membrane and the receptor phase (see FIGS. 3B to D).

Depletion value of the donor phase calculated from path length, ibuprofen concentration in the gel and literature extinction coefficient: −1.5 AU
Compound: CC(C)Cc1ccc(C(C)C(=O)O)cc1 (stereo not shown) [ibuprofen]
